Measurements as given in article PMC2879362, “Design of Group IIA Secreted/Synovial Phospholipase A2 Inhibitors: An Oxadiazolone Derivative Suppresses Chondrocyte Prostaglandin E2 Secretion” (PLoS ONE, 2010).

How the values were obtained:
iNOS = assay: Western blot of iNOS protein level in IL-1β-treated chondrocytes; type: cell-based, rabbit; details: C8 0.31-1.24 µM in DMEM, IL-1β 20 h
Protocol: (§1) As expected, COX-1 protein was detectable but COX-2 and iNOS proteins were undetectable in untreated control conditions (Fig. 6A). […] Consequently, the protein ratio of COX-1 to COX-2 was not modified by C8 (Fig. 6B). […] Cell lysates were centrifuged for 15 min at 14000 rpm at 4°C and supernatants were collected. Protein concentrations were determined by the Bradford method by use of the Protein Assay dye reagent (Bio-Rad). Protein extracts (20 µg) were size-separated by SDS-PAGE in a 10% (w/v) polyacrylamide gel and electroblotted to a nitrocellulose membrane. Equal protein loading and transfer was confirmed by staining the membrane with Ponceau Red [0.2% (w/v) in H2O:acetic acid 99∶1]. The membrane was sequentially incubated with antibodies against COX-1 (1∶200, Santa Cruz Biotechnology), COX-2 (1∶500, Santa Cruz Biotechnology), iNOS (1∶400, BD Biosciences) or α-tubulin (1∶100, Santa Cruz Biotechnology) and then with peroxidase-conjugated donkey anti-goat IgG (1∶20000) or donkey anti-rabbit IgG (1∶200, both Santa Cruz Biotechnology). Immunocomplexes were detected by an enhanced chemiluminescence kit (Amersham Bioscience). The membrane was stripped by incubation in 0.2 M NaOH between successive immunodetections. Semi-quantitative scanning densitometry involved use of the ImageJ program (NIH, USA).

COX-2 = assay: Western blot of COX-2 protein level in IL-1β-treated chondrocytes; type: cell-based, rabbit; details: C8 0.31-1.24 µM in DMEM, IL-1β 20 h
Protocol: as §1

O=c1[nH]c(Cc2ccc(OCCCCCOc3cc4ccccc4c4ccccc34)cc2)no1 [C8]
effect on iNOS protein level (iNOS): did not alter | effect on COX-2 protein level (COX-2): did not alter
